According to US20170226507A1, “COORDINATE CONTROL OF PATHOGENIC SIGNALING BY THE MIR-130/301 FAMILY IN PULMONARY HYPERTENSION AND FIBROPROLIFERATIVE DISEASES” (The Brigham and Women's Hospital, Inc., priority 2014, published 2017):
“Also recorded” adds a separate entry of the source. No end group written: not given here.

Assays:
[1] = test system: STAT3; experiment: STAT3 phosphorylation in PASMCs (conditioned media from PAECs or endothelin-1; immunoblot); type: cell-based, human; conditions: direct exposure to endothelin-1
Procedure: (§1) (FIG. 40A) A schematic diagram of co-culture experiments: conditioned media from transfected PAECs (miRNA, anti-miRNA, tiny-LNA or siRNA under normoxic or hypoxic conditions) were filtered and applied onto naïve PASMCs cultured in matrigel. At specific times, PASMCs or PASMC-matrigel cultures were arrested and analyzed for STAT3 activation (phosphorylation) or contraction, respectively.
(§2) 50000 PASMC were embedded in 100 ul of matrix gel as previous described (Gagiolli et al) and plated into well of a 96 well plate. After 1 h at 37° C., these matrices were overlaid with 100 ul of conditioned PAECs serum-free medium (transfected with siRNA, miRNA or anti-miRNA and supplemented with Ambriesentan 10 uM). Every 12 h, medium was changed and at day 4 the gels were photographed and the relative diameter of the well and the gel were measured using ImageJ. The percentage contraction was calculated using the formula 100*(well diameter−gel diamter)/well diameter. For the co-culture experiment, conditioned media from PAEC transfected as indicated were applied on PASMCs or Fibroblast previously starved (24 h). Cells were collected at different time and analyzed by western blotting.
Cells were lysed in RIPA buffer (Santa Cruz Biotechnology) and the protein concentration determined using a Bradford assay (Biorad). Protein lysate ([…]) were resolved by SDS-PAGE and transferred onto a PVDF membrane (Biorad). Membranes were blocked in 5% non-fat milk in TN buffer (50 mM Tris-HCl pH 7.4, 150 mM NaCl) and incubated in the presence of the primary and then secondary antibodies. After washing in TN buffer containing 0.1% Tween, immunoreactive bands were visualized with the ECL system (Amersham Biosciences). […] Primary antibodies for STAT3 (#9139) and P-STAT3 (Tyr-705; #9145) were purchased from Cell Signaling. Primary antibodies against actin (ab 3280), was obtained from Abcam. Appropriate secondary antibodies (anti-rabbit and anti-mouse) coupled to HRP were used (Santa Cruz Biotechnology).

[2] = test system: PASMCs; experiment: Contraction assay of PASMCs in matrigel; type: cell-based, human; conditions: endothelin-1 for 4 days vs vehicle
Procedure: as §1, §2

[3] = test system: Bleomycin-induced lung fibrosis in mice; experiment: Bleomycin-induced lung fibrosis in mice; type: in vivo, mouse
[4] = test system: liver-X nuclear hormone receptor (LXR); experiment: Oral LXR agonist GW3965 in bleomycin-exposed mice (lung fibrosis); type: in vivo, mouse; conditions: 100 mg/kg/day in chow
Procedure: C57BL/6 mice (7-8 weeks old) were exposed to 0.035 U of bleomycin via oropharyngeal route. In the control group, saline (PBS) was administered via the same route. Mice were euthanized 14 days or 21 days after bleomycin administration. To determine the effects of the LXR agonist GW3965 (Sigma-Aldrich) and consequent APOE induction on lung fibrosis, as previously described^12, mice were exposed to bleomycin (as described above) and simultaneously assigned to control chow or chow supplemented with GW3965 (Research Diets, Inc.) at doses of 100 mg of drug per kilogram of mouse per day (based on average daily intake of […] of chow). After two weeks, harvest of lung tissue was performed for RNA/protein extraction or paraffin embedding. Messenger RNAs were reverse transcribed using the Multiscript RT kit (Life Technologies) to generate cDNA. cDNA was amplified via fluorescently labeled Taqman primer sets using an Applied Biosystems 7900HT Fast Real Time PCR device. […] A primary antibody against YAP1 (#4912; 1/200) was obtained from Cell Signaling. Primary antibodies against, LRP8 (ab115196; 1/100), α-SMA (1/400) were purchased from Abcam. Primary antibodies against PPARγ (sc-7273; 1/50) was purchased from Santa Cruz. Primary antibody against anti-shortmer ([…]-[…]; 1/1000) was provided by Regulus Therapeutics, as previously described^2. […] Pictures were obtained using an Olympus Bx51 microscope. For liver tissue and pulmonary tissue, 10 random 20× fields per animal were analyzed. Intensity of staining was quantified using ImageJ software (NIH). […] Degree of liver fibrosis was assessed in paraffin-embedded liver sections stained for α-SMA by […] score^65. All measurements were performed blinded to condition. […] The sections were then serially imaged using with an analyzer and polarizer oriented parallel and orthogonal to each other. Microscope conditions (lamp brightness, condenser opening, objective, zoom, exposure time, and gain parameters) were constant throughout the imaging of all samples. A minimal threshold was set on appropriate control sections for each experiment in which only the light passing through the orthogonally-oriented polarizers representing fibrous structures (i.e., excluding residual light from the black background) was included. The threshold was maintained for all images across all conditions within each experiment. The area of the transferred regions that was covered by the thresholded light was calculated and at least 10 sections per condition were averaged together (Image J software).

[5] = test system: hypoxia-induced PH in mice; experiment: Hypoxia-induced PH in mice: BAPN (prevention, rescue) or GW3965 (prevention); type: in vivo, mouse
Source text: Finally, we wanted to determine if ApoE activity and/or LOX-dependent vascular stiffening were essential for ECM stiffening and PH development by miR-130/301. To assess the importance of ApoE activity, we attempted to prevent PH in mice via treatment with daily dietary ingestion of the liver-X nuclear hormone receptor (LXR) agonist GW3965, a known pharmacologic inducer of ApoE (Pencheva et al., 2014), simultaneously with hypoxia (FIGS. 62A-62H and 68A-H). Alternatively, experiments were designed to either prevent or reverse hypoxia-induced PH in mice via serial treatment with a pharmacologic inhibitor of LOX (Levental et al., 2009), β-aminopropionitrile BAPN, administered either simultaneously with hypoxia exposure (“prevention”) or after disease development (“reversal”) (FIGS. 62A-62H and 68A-H). In all cases of GW3965 or BAPN treatment, collagen crosslinking (FIG. 62D, 62H, FIG. 68) was inhibited, leading to decreased indices of PH, as reflected by RVSP (FIG. 62A, 62E), right ventricular remodeling (RV/LV+S ratio; FIG. 62B, 62F) and pulmonary arteriolar muscularization (FIG. 62C, 62G). GW3965 or BAPN treatment also reversed Pparγ and Lrp8 down-regulation (FIGS. 68A-68H) as well as reduced YAP nuclear localization (FIG. 62D, 62H) and YAP activation, as reflected by decreased Ctgf (FIGS. 68A-68H). Thus, considering the convergent data regarding pharmacologic manipulation of miR-130/301, APOE, and LOX, we can conclude that the YAP-TAZ-miR-130/301 circuit and its downstream network of targets act as master regulators of ECM remodeling in PH and represent a new set of targets for tailored molecular therapy in this disease.
To determine the effects of the LXR agonist GW3965 (Sigma-Aldrich) and consequent APOE induction on PH development, as previously described (Pencheva et al., 2014), mice were exposed to normobaric hypoxia and simultaneously assigned to control chow or chow supplemented with GW3965 (Research Diets, Inc.) at doses of 100 mg of drug per kilogram of mouse per day (based on average daily intake of […] of chow).
Picrosirius Red stain was achieved through the use of 5 μm paraffin sections stained with 0.1% Picrosirius Red (Direct Red80, Sigma-Aldrich) and counterstained with Weigert's hematoxylin to reveal fibrillar collagen. The sections were then serially imaged using with an analyzer and polarizer oriented parallel and orthogonal to each other. Microscope conditions (lamp brightness, condenser opening, objective, zoom, exposure time, and gain parameters) were constant throughout the imaging of all samples. A minimal threshold was set on appropriate control sections for each experiment in which only the light passing through the orthogonally-oriented polarizers representing fibrous structures (i.e., excluding residual light from the black background) was included. The threshold was maintained for all images across all conditions within each experiment. The area of the transferred regions that was covered by the thresholded light was calculated and at least 10 sections/vessel per condition were averaged together (Image J software).
This protocol was adapted from a previously published protocol (Hu et al.). Mouse lung was weighed, minced, and incubated in 0.5 M acetic acid at 4° C. After overnight digestion, the acetic acid-soluble and insoluble fractions were isolated by centrifugation. The soluble fraction was stored at −80° C., while the insoluble fraction was digested by overnight incubation in 6M hydrochloric acid at 85° C. Concentrations of soluble and insoluble (gelatinous) collagen fractions were determined using a Sircol Soluble Collagen Assay Kit (Biocolor) with a colorimetric reaction (measured at 550 nm) and a provided collagen reference standard curve.

endothelin-1: recombinant human EDN1 applied to PASMCs at 1 nM (CSCSSLMDKECVYFCHLDIIW; ends and bridges not checked; cysteine pairing not given here; UniProt P05305 53-73, looked up)
STAT3 phosphorylation in PASMCs [1]: time-dependent increase
STAT3 phosphorylation in PASMCs ([1]; listed as EDN1): increased
matrigel contraction of PASMC culture [2]: led to matrigel contraction
matrigel contraction of PASMC culture ([2]; listed as EDN1): increased

O=C(O)Cc1cccc(OCCCN(Cc2cccc(C(F)(F)F)c2Cl)CC(c2ccccc2)c2ccccc2)c1 [GW3965]
Pparγ and Lrp8 (and Timp2) expression ([3]; IHC / in situ stain): blunted
Ctgf, collagen isoforms and Lox transcripts ([3]; RT-PCR): reduced
collagen deposition and cross-linking ([3]; Short-130 20 mg/kg i.p. or GW3965 100 mg/kg dietary): blunted
lung fibrosis (α-SMA, collagen staining, Ashcroft score) ([3]; Short-130 or GW3965 100 mg/kg dietary): ameliorated
Yap nuclear localization / YAP ([3]; in situ stain): blunted
Pparγ and Lrp8 down-regulation [4]: reversed
YAP activation, Ctgf expression [4]: decreased
YAP nuclear localization [4]: reduced
collagen crosslinking ([4]; two weeks): inhibited
indices of lung fibrosis, Ashcroft score ([4]; two weeks): decreased
perivascular collagen crosslinking ([5]; Picrosirius Red): inhibited; also recorded: decreased
Ctgf, collagen isoforms, and Lox in lung ([5]; RT-qPCR): blunted
whole lung collagen content and crosslinked collagen ([5]; Sircol assay): nearly normalized
arteriolar muscularization ([5]; hypoxic mice): decreased; also recorded: prevented
right ventricular hypertrophy (Fulton index, RV/LV+S) ([5]; hypoxic mice): decreased; also recorded: prevented
RVSP ([5]; hypoxic mice, BAPN prevention and rescue, GW3965 100 mg/kg/day in chow, 100 mg/kg/day): decreased; also recorded: prevented
hypoxia mediated decreases of Lrp8 and Pparγ ([5]; in situ staining): reversed; also recorded: prevented
hypoxia-mediated increases of α-SMA and YAP ([5]; in situ staining): reduced; also recorded: blunted
